Source: PMC12838644, “Dihydrotanshinone as a Natural Product-Based CYP17A1 Lyase Inhibitor for Hyperandrogenic Disorders” (Biomolecules, 2026)
Read-outs that look alike come from different tables or passages of the source.

What was measured:
CYP17A1 17α-hydroxylase = target: T1, CYP17A1 17α-hydroxylase (Homo sapiens, UniProt P05093); experiment: CYP17A1 17α-hydroxylase activity assay (progesterone to 17OH-progesterone, reconstituted POR/CYP17A1); format: biochemical; conditions: for inhibition at 10 µM: read-out: % Inhibition CYP17A1-OH
T1 sequence (P05093 1-508): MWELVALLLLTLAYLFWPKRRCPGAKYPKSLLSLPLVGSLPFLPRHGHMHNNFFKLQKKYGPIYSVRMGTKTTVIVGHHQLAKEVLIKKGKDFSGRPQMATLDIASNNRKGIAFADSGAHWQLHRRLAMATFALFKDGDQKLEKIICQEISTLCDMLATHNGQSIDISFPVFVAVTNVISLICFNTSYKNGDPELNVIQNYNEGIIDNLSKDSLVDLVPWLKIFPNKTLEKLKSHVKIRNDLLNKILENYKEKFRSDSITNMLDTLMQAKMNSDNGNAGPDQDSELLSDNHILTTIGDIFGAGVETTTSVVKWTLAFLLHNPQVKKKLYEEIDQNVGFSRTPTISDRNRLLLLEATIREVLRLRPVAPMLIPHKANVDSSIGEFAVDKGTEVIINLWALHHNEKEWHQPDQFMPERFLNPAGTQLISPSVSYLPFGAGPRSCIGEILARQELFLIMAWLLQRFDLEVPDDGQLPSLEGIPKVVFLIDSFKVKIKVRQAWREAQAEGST
Protocol: Assay of CYP17A1 17α-hydroxylase and 17,20-lyase activities were performed as described previously. The 17α-hydroxylase activity was measured by conversion of progesterone to 17OH-progesterone, while production of DHEA from 17OH-pregnenolone was used for monitoring the 17,20-lyase activity of CYP17A1. In vitro CYP17A1 assays were performed using a liposome system consisting of human p450 oxidoreductase (POR) and CYP17A1 at a ratio of 3:4 (POR: CYP17A1). The final assay mixture consisted of proteins (37.5 […] CYP17A1), 10 mM MgCl2, 6 mM potassium acetate (KOAc), 0.05 mg/mL DLPC,1 mM reduced Glutathione in 50 mM HEPES-NaOH buffer (pH 7.4), and the reaction volume was 200 μL. The drugs were added to the final mixture and incubated for 1h before the catalytic reaction was initiated by the addition of NADPH to 1 mM final concentration. Radiolabeled [^14C]-progesterone (10,000 cpm in 1 µM) was used as a tracer in each reaction. Steroids were extracted and separated by thin-layer chromatography (TLC) on silica gel (SIL G/UV254) TLC plates (Macherey-Nagel, Oensingen, Switzerland) as previously described.

CYP21A2 [1] = target: T2, CYP21A2 (Homo sapiens, UniProt P08686); experiment: CYP21A2 activity assay in transiently transfected HEK-293T cells; format: cell-based; conditions: for inhibition at 10 µM: read-out: % Inhibition CYP21A2
T2 construct: expressed in transfected cells; host or cells: HEK293 / HEK-293T
T2 sequence (P08686 1-495): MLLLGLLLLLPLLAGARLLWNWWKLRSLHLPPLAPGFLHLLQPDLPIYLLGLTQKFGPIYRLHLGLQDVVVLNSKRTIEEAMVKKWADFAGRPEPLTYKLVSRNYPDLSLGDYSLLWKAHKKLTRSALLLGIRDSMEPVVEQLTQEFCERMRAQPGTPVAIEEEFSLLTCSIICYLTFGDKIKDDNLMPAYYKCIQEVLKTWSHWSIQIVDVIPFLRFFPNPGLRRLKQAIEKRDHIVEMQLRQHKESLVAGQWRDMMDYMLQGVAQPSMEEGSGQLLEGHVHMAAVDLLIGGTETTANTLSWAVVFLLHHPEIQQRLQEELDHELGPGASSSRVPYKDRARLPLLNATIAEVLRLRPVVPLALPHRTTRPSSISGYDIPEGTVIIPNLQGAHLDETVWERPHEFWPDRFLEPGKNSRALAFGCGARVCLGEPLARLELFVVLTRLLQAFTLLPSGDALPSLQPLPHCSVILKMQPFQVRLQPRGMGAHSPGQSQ
Protocol: Transient transfections were performed using the CYP21A2 WT vector as described previously. HEK293 cells were seeded in six-well plates (3 × 10^5 cells/well). After 24 h, the growth medium was replaced, and cells were transfected using Lipofectamine 2000 (Thermo Fisher Scientific, Bedford, MA, USA) with 12.5 µg of plasmid (plasmid concentration: 1068 µg/mL). Twenty-four hours after transfection, transfected cells were replated in 24-well plates (1.5 × 10^5 cells/well) to ensure homogeneity of the cell population across the wells. Six hours after transfection, 2 mL of fresh medium was replaced, and the cells were cultured for 48 h. Cell growth was examined. […] DMSO was added to the negative control, and 10 µM abiraterone was added to the positive control, and the cells were incubated for 4 h. Functional assays were initiated by adding 1 µM unlabeled progesterone (using 10,000 cpm of [^14C]-progesterone as a tracer). After incubation at 37 °C for 1 h, the culture medium and cells were harvested. Steroids were extracted from the culture medium with ethyl acetate and isooctane (1:1 volume ratio), dried, and dissolved in dichloromethane. Steroids were separated by thin-layer chromatography (TLC), placed on a phosphor screen, and visualized using a Typhoon PhosphorImager FLA-7000 (GE Healthcare Bio-Sciences AB, Uppsala, Sweden). Image intensity was measured and quantified using ImageQuant TL v8 (Cytiva, Marlborough, MA, USA). The CYP21A2 enzyme activity was expressed as relative steroid conversion. Steroids were quantified as a percentage of radioactivity incorporated into […] to the total radioactivity measured in the whole sample and compared between the WT and variants. Cells were collected with trypsin and washed with 1× PBS to quantify the amount of protein. Results were analyzed from three technical replicates. To ensure a similar amount of CYP21A2 in each reaction, a Western blot analysis was performed to normalize the enzyme activity with the relative CYP21A2 expression.

CYP21A2 [2] = experiment: Western blot of CYP21A2 protein expression in treated HEK-293T cells; format: cell-based, human; conditions: normalized to β-actin, 4 h treatment, DMSO control 1.07
Protocol: CYP21A2 expression was determined from total protein extracts. Cells were incubated with the previously described lysis buffer for 1 h and centrifuged at 10,000× g for 10 min at 4 °C [54]. The supernatant was collected, and total protein was determined using the Pierce Coomassie Plus (Bradford) assay kit (Thermo Fisher Scientific, Hanover Park, IL, USA). 50 μg of total protein was loaded onto an SDS-PAGE gel (GenScript, Piscataway, NJ, USA) and then transferred to a PVDF membrane as previously described. Two primary antibodies were used: a mouse DKY-Tag monoclonal antibody (GenScript, Catalog No. A00187) at a dilution of 1:1000 and a mouse anti-β-actin monoclonal antibody (Sigma Aldrich, St. Louis, MO, USA, Catalog No. SAB3500350) at a dilution of 1:1500. The secondary antibody, IRDye 800CW-conjugated donkey anti-mouse antibody (LI-COR, Lincoln, NE, USA, Catalog No. 926-32212), was used at a dilution of 1:15,000. Fluorescence signals were detected using an Odyssey SA infrared imaging system (LI-COR Bioscience Inc., Lincoln, NE, USA).

[3] = 10 µM (SM extract 10 µg/mL), calculated as 100% − % residual activity
[4] = 10 µM (SM extract 10 µg/mL), transfected HEK-293T cells, calculated as 100% − % residual activity

Row | Structure (SMILES) | Residual 17α-hydroxylase activity (CYP17A1 17α-hydroxylase; % of DMSO control, 10 µM (SM extract 10 µg/mL)) [%] | inhibition at 10 µM (CYP17A1 17α-hydroxylase) [%] | Residual CYP21A2 activity (CYP21A2 [1]; % of DMSO control, 10 µM, transfected HEK-293T cells) [%] | inhibition at 10 µM (CYP21A2 [1]; HEK-293T) [%] | CYP21A2 protein levels, normalized densitometry values (CYP21A2 [2]) | inhibition at 10 µM (CYP17A1 17α-hydroxylase; [3]) [%] | % Inhibition CYP21A2 (CYP21A2 [1]; [4]) | inhibition at 10 µM (CYP21A2 [1]; [4]) [%]
1 | Cc1cccc2c3c(ccc12)C1=C(C(=O)C3=O)[C@@H](C)CO1 [DT, dihydrotanshinone I] | > 93 | 6.5 | 85 | 14.9 | 1.15 | – | – | –
2 | Cc1coc2c1C(=O)C(=O)c1c-2ccc2c1CCCC2(C)C [TAII, tanshinone IIA] | – | – | – | – | 1.30 | < 1 | no meaningful inhibition | < 1
3 | Cc1coc2c1C(=O)C(=O)c1c-2ccc2c(C)cccc12 [TAI, tanshinone I] | – | – | – | – | – | < 1 | no meaningful inhibition | < 1
